From BindingDB's records for patent US20240316047 (Accent Therapeutics, 2024) come the findings set out here.

Sequence of ATP-dependent RNA helicase A (Q08211 whole entry): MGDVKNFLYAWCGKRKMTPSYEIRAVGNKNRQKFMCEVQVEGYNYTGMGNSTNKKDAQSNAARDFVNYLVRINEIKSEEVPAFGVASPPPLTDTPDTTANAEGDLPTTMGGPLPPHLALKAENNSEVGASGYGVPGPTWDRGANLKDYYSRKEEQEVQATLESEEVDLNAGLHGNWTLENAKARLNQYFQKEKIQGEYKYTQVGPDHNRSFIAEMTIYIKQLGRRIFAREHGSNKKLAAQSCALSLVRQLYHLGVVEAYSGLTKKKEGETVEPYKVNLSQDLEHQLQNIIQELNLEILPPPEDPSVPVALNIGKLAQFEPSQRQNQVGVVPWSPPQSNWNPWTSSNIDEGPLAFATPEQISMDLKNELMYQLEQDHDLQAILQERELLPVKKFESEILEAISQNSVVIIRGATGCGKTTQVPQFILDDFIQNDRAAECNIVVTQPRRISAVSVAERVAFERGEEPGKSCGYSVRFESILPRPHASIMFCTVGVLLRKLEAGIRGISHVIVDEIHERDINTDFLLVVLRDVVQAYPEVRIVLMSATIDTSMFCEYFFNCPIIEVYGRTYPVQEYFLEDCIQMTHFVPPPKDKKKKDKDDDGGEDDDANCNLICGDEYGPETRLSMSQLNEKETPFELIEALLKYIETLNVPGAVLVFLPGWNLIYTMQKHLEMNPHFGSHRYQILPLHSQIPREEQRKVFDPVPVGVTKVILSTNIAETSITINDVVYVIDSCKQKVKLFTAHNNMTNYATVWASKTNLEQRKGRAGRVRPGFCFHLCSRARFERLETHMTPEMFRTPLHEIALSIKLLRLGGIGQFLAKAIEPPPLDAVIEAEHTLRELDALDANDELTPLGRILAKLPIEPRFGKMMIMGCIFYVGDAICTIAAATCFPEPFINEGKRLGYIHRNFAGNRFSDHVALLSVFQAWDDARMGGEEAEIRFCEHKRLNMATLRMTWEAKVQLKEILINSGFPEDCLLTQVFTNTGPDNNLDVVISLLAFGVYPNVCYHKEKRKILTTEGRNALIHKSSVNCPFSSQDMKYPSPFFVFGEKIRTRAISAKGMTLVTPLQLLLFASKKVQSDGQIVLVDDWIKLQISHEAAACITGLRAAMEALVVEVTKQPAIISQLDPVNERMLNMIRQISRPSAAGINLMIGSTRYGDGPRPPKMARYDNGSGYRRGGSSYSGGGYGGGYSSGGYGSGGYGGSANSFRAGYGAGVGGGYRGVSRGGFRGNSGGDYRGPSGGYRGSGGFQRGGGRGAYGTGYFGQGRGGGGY

This test addresses ATP-dependent RNA helicase A (UniProt Q08211). Briefly: Biochemical Assay.
In general, IC50 refers to the concentration at which inhibition is half-maximal. Low values mean higher potency, high ones lower potency. On to `CC(C)(C)OC(=O)N1CCC(n2cc(C(=O)Nc3cc(Cl)cc(NS(C)(=O)=O)c3)cn2)CC1` [US20240316047, Example 136], for which the IC50 amounted to 234 nM.
`Cc1cccnc1-c1cc(C(=O)Nc2cc(Cl)cc(NS(C)(=O)=O)c2)cn1CC(F)F` [US20240316047, Example 143]: the IC50 amounted to 51.1 nM.
With `Cc1cc(C(=O)Nc2cc(Cl)cc(NS(C)(=O)=O)c2)cn1-c1ccccc1` [US20240316047, Example 129] the figure was 38.4 nM.
With `Cc1sc(C(=O)Nc2cc(Cl)cc(NS(C)(=O)=O)c2)cc1-c1ncc(N2CCC3(C2)CC3(F)F)cn1` (centres undefined) [US20240316047, Example 491] the figure was 10.8 nM.
